{"source": "patent US20110190270A1", "about": "“METHODS OF TREATING THROMBOEMBOLIC DISORDERS” (MONASH UNIVERSITY, priority 2008, published 2011)", "key": {"[1]": {"test_system": "platelet thrombi formed from human whole blood", "test": "in vitro thrombus consolidation under flow on Type I collagen", "assay_type": "cell-based", "conditions": "for effect of fibrin/thrombin inhibition on contraction of platelet thrombi (in words): whole blood, 1800 s-1, GPRP 280 μM in native blood, hirudin-anticoagulated, lepirudin 1600 U/ml + enoxaparine 400 U/ml", "description": "Flow-based thrombus formation assays on a bovine fibrillar Type I collagen matrix were performed at 37° C. in the absence of fibrin. Briefly, […] (DMSO), Blebbistatin (+) (200 μM), Blebbistatin (−) (200 μM), EGTA/Mg^2+ (2 mM/1 mM), HA1077 (80 μM), H1152 (40 μM) or 2-APB (200 μM) (10 mins, 37° C.) prior to perfusion through fibrillar type I collagen-coated microcapillary tubes (2.0 mg/ml) at 1800 s^−1 for 5 mins. Thrombus formation was observed using an inverted Leica DMIRB microscope (Leica Microsystems, Wetzlar, Germany) with a 63× water objective (1.2 numeric aperture (NA)), and recorded in real-time using a Dage-MTI charge-coupled device (CCD) camera 300 ETRCX (Dage-MTI, Michigan City, Ind.).\nTwo-dimensional quantification of thrombus consolidation—Quantification of thrombus contraction was performed by ‘spiking’ whole blood with 3% DiIC12-labelled platelets prior to perfusion. Spiked whole blood was then perfused over collagen matrices as described above, and DIC/fluorescence images were recorded in real-time as described above, for off-line analysis. Studies examining the effect of 2-APB on consolidation were performed by perfusing untreated whole blood across microslides for 30 seconds to establish a nucleating thrombus, followed by perfusion of inhibitor treated blood. […] The distance between 2 fluorescently-labelled platelets in a given thrombus was measured in […] every 30 sec over 5 min. Results are expressed as percentage decrease in the distance between 2 platelets incorporated into a thrombus prior to 1 minute of flow, with the distance between platelets at 1 minute taken as 100%.\n3D volumetric thrombus analysis—For analysis of thrombus volume, whole blood was labelled with DiIC12 (1 μM) prior to perfusion. Thrombi were formed as described above, and images captured in real-time using an inverted Leica DMIRB confocal microscope, with […] sections acquired every 30 seconds over 4-5 min. Analysis of thrombus volume was performed using Metamorph 6 software."}, "[2]": {"test_system": "thrombi in mesenteric post-capillary venules", "test": "intravital microscopy of thrombus growth and stability after vessel injury", "assay_type": "in vivo, mice", "conditions": "for mean reduction in thrombus size: local administration into the microcirculation after thrombus formation; for mean reduction in thrombus size / effect on thrombus stability and embolization in vivo (in words): needle puncture, no lepirudin; for stability of the primary hemostatic plug (in words): mice pretreated with lepirudin 50 mg/kg i.v., local infusion into formed thrombus; for effect on thrombus stability and embolization in vivo (in words): local microinjection after thrombus formation", "description": "The development and consolidation of thrombi in response to vessel injury was monitored using intravital microscopy. C57BL6 or PAR4 deficient (15 g-18 g) mice were anaesthetised using sodium pentobarbitone (60 mg/kg), and the mesentery exteriorized through a midline abdominal incision. Body temperature was maintained during the procedure using an infrared heat lamp, and exposed mesenteric vessels (50-160 μm diameter) were hydrated using warm saline. Vessel injury was achieved either through vessel puncture using a microinjection needle (20-30 μm tip diameter) connected to a micromanipulator (Eppendorf), or through application of 6% FeCl3-soaked filter paper (8 sec). Accrual of platelets to the area of injury was recorded in real-time as described for in vitro flow assays (above). […] (25 mM stock solution, 2.5 μl total injection volume), or an equivalent volume of vehicle (DMSO), were locally infused into developing thrombi via the microinjection needle (release rate 2-3 μl/min, 3 cycles). To prevent fibrin generation, in some experiments, lepirudin (50 mg/kg) was administered via intravenous injection prior to induction of injury and subsequent injection of inhibitors. Complete abolition of fibrin formation at this concentration of lepirudin was confirmed by histology using Carstair's stain. The surface area of thrombi in vivo was measured using Image J, with analysis of every 5th frame (at 1 frame/sec) over 4-5 mins. Change in surface area was expressed as fold-increase or decrease over the original surface area (=1)."}, "non-muscle myosin II": {"test_system": "non-muscle myosin II", "conditions": "read-out: IC50, inhibitor of non-muscle myosin II; cited from earlier work"}, "[3]": {"test_system": "platelet-mediated fibrin clot retraction in citrated PRP", "test": "platelet-mediated fibrin clot retraction", "assay_type": "cell-based, human", "conditions": "thrombin 1 U/ml, 2-APB 200 μM, EGTA/Mg2+ 2 mM/1 mM, H1152 40 μM, HA1077 80 μM", "description": "Washed platelets were prepared from acid-citrate dextrose (ACD)-anticoagulated whole blood, with the inclusion of Lepirudin (800 U/ml) in the Platelet Washing Buffer and Apyrase (0.02 U/ml) in the Tyrode's Buffer.\nPlatelet-mediated fibrin-dependent clot retraction was measured using citrated PRP^9,10. Results are expressed as, the percentage of serum remaining in the tube following clot removal, after subtracting the volumes obtained for c7E3 (negative control) samples."}, "[4]": {"test_system": "occlusive blood clot in the carotid artery", "test": "carotid artery occlusion model, clot lysis and vascular reperfusion", "assay_type": "in vivo, mice", "conditions": "regimens A-H of FIGS. 8 and 9, blood flow monitored 60 minutes", "description": "Mice were anaesthetised and minor surgery performed to expose to the carotid artery and jugular vein. A Doppler flow probe was placed around the carotid artery to monitor blood flow through this blood vessel, and a catheter placed in the jugular vein to administer drugs. A blood clot was formed in the carotid artery of the mouse through the delivery of a small electric current (4 mA for 1.25 min^g), resulting in complete blockage of blood flow through the vessel (blood flow=0 mls/min), as measured by the flow probe. After vessel blockade was established, various combinations of t-PA, urokinase, heparin, hirudin, HA1077 and Y27632 were administered, using concentrations and regimens indicated (A-H in FIGS. 8 and 9) and examined for their efficacy to dissolve blood clots and restore blood flow. Blood flow was monitored in mice receiving each drug combination for a further 60 minutes, and blood flow measurements recorded using computer software."}, "[5]": {"conditions": "H1152 40 μM, Blebbistatin (−) 200 μM, lepirudin-anticoagulated human whole blood, 1800 s-1"}, "[6]": {"conditions": "GPRP added to native whole blood, 1800 s-1"}}, "note": "pIC50: −log10 of the molar value."}
{"compound": "Cc1ccc2c(c1)C(=O)C1(O)CCN(c3ccccc3)C1=N2", "note": "(stereo not drawn) [Blebbistatin]", "values": [{"measurement": "stability of thrombi formed in vitro (in words)", "setting": "[1]; [5]", "value": "highly unstable platelet thrombi"}, {"measurement": "effect on thrombus contraction / consolidation (in words)", "setting": "[1]; HA1077 80 μM, Blebbistatin (−) 200 μM, lepirudin-anticoagulated human whole blood, 1800 s-1", "value": "tight packing of platelets did not occur"}, {"measurement": "thrombus behaviour on cessation of administration", "setting": "[2]; after stopping local administration", "value": "thrombi rapidly reformed"}, {"measurement": "mean reduction in thrombus size", "setting": "[2]", "value": 38, "unit": "%"}, {"measurement": "stability of the primary hemostatic plug (in words)", "setting": "[2]; listed as active enantiomer of blebbistatin", "value": "near complete embolization of the formed thrombus"}, {"measurement": "pIC50", "setting": "non-muscle myosin II", "value": "~5.40"}]}
{"compound": "NCCOB(c1ccccc1)c1ccccc1", "note": "[2-APB, 2-aminoethoxydiphenyl borate]", "values": [{"measurement": "reduction of thrombus contraction", "setting": "[1]; 2-APB 200 μM, perfused after 30 sec of untreated blood, lepirudin-anticoagulated human whole blood, 1800 s-1", "value": 32, "unit": "%"}, {"measurement": "fibrin clot retraction (in words)", "setting": "[3]", "value": "abolished clot retraction"}]}
{"compound": "lepirudin", "values": [{"measurement": "effect of fibrin/thrombin inhibition on contraction of platelet thrombi (in words)", "setting": "[1]", "value": "underwent a prominent contractile phase"}, {"measurement": "thrombus stability in the absence of thrombin", "setting": "[2]; wild type mice pretreated with lepirudin 50 mg/kg prior to vessel injury", "value": "thrombi were more unstable"}]}
{"compound": "Cc1ccc2c(c1)C(=O)C1(O)CCN(c3ccccc3)C1=N2", "note": "(single isomer, unassigned) [inactive blebbistatin enantiomer]", "values": [{"measurement": "effect on thrombus stability and embolization in vivo (in words)", "setting": "[2]", "value": "no effect"}, {"measurement": "stability of the primary hemostatic plug (in words)", "setting": "[2]", "value": "no adverse effect"}]}
{"compound": "Gly-Pro-Arg-Pro peptide [GPRP]", "values": [{"measurement": "formation of fibrin polymers", "setting": "[1]; [6]", "value": "inhibited the formation of individual fibrin polymers"}, {"measurement": "platelet thrombus growth", "setting": "[1]; [6]", "value": "no inhibitory effect"}, {"measurement": "effect of fibrin/thrombin inhibition on contraction of platelet thrombi (in words)", "setting": "[1]", "value": "unaltered"}]}
{"compound": "Cl.O=S(=O)(c1cccc2cnccc12)N1CCCNCC1", "note": "[HA1077, 1-(5-isoquinolinesulphonyl)-homopiperazine HCl]", "values": [{"measurement": "fibrin clot retraction (in words)", "setting": "[3]", "value": "neither inhibitor had any significant effect"}, {"measurement": "clot lysis and re-establishment of blood flow (in words)", "setting": "[4]", "value": "unable to lyse blood clots and re-establish blood flow"}]}
{"compound": "O=C(O)CN(CCOCCOCCN(CC(=O)O)CC(=O)O)CC(=O)O", "note": "[EGTA]", "values": [{"measurement": "reduction of the rate of thrombus contraction", "setting": "[1]; EGTA/Mg2+ 2 mM/1 mM, lepirudin-anticoagulated human whole blood, 1800 s-1, at 5 mins perfusion", "value": "up to 52%"}, {"measurement": "fibrin clot retraction (in words)", "setting": "[3]", "value": "no significant inhibitory effect"}]}
{"compound": "Cc1cncc2cccc(S(=O)(=O)N3CCCNC[C@@H]3C)c12.Cl.Cl", "note": "[H1152, (S)-(+)-2-methyl-1-[(4-methyl-5-isoquinolinyl)sulfonyl]homopiperazin, 2HCl]", "values": [{"measurement": "stability of thrombi formed in vitro (in words)", "setting": "[1]; [5]", "value": "less stable thrombi"}, {"measurement": "decrease in thrombus contraction", "setting": "[1]; H1152 40 μM, lepirudin-anticoagulated human whole blood, 1800 s-1, after 5 mins perfusion", "value": 88, "unit": "%"}, {"measurement": "mean reduction in thrombus size", "setting": "[2]", "value": 34, "unit": "%"}, {"measurement": "effect on thrombus stability and embolization in vivo (in words)", "setting": "[2]", "value": "more effective than the IP3 receptor antagonist APB"}, {"measurement": "fibrin clot retraction (in words)", "setting": "[3]", "value": "neither inhibitor had any significant effect"}]}
